US11890288B2, “Sulfonamide or sulfinamide compound having effect of inducing BRD4 protein degradation and pharmaceutical use thereof” (MITSUBISHI TANABE PHARMA CORPORATION, priority 2020, dated 2024)

How the values were obtained:
[1] = test system: Human breast cancer MDA-MB-436 cells; test: Cytotoxic action on MDA-MB-436 cells (WST-8, 96 hr); type: cell-based; conditions: Homo sapiens
Method: The cytotoxic action of the compound of the present invention against cancer cells that acquired resistance to conventional BRD4 protein degradation inducing agents was evaluated in vitro. In this experiment, ARV-771 (Proc Natl Acad Sci USA. volume 113, pages 7124-7129 (28 Jun. 2016)) and MZ1 (ACS Chem Biol. Volume 10, pages 1770-1777 (21 Aug. 2015)), in which a ligand for VHL and BRD4 protein inhibitor are linked, were used as a conventional BRD4 protein degradation inducing agent serving as a comparison control. Human breast cancer MDA-MB-436 cells and MDA-MB-436 cells that acquired resistance to conventional BRD4 protein degradation inducing agents (MDA-MB-436 w/o2 cells) were suspended in 10% FBS/RPMI1640, seeded in a 96 well plate and cultured at 5% CO2, 37° C. overnight. A test compound dissolved in DMSO was diluted with 10% FBS/RPMI1640 and added and the cells were further cultured for 96 hr. After culturing, the viable cell number was measured using a cell number measurement WST-8 kit (Kishida Chemical Co., Ltd.). As a control, the measurement was performed under conditions free of the test compound. The cytotoxic activity of the compound of the present invention against each cell is shown in IC50 value in Table 4. The IC50 value is a concentration of the compound showing 50% cell survival rate when the cell survival rate thereof under compound untreated condition is 100%. It was calculated from the straight line connecting the cell survival rate at two points enclosing the 50% cell survival rate and the compound concentration. In addition, the tolerance (fold) was calculated by dividing the IC50 value in MDA-MB-436 w/o2 cells by the IC50 value in MDA-MB-436 cells.

[2] = test system: human uterine sarcoma MES-SA cell; test: Cytotoxic action on MES-SA cells (WST-8, 96 hr); type: cell-based
Method: (§1) The cytotoxic action of the compound of the present invention against human cancer cells was evaluated in vitro. In this experiment, (+)-JQ1 (Nature volume 468, pages 1067-1073 (23 Dec. 2010)) known to have an inhibitory activity on the binding of BRD4 protein and a ligand therefor was used as a positive control drug. Respective cells were suspended in 10% FBS/RPMI1640, seeded in a 96 well plate and cultured at 5% CO2, 37° C. overnight. A test compound dissolved in DMSO was diluted with 10% FBS/RPMI1640 and added and the cells were further cultured for 96 hr. After culturing, the viable cell number was measured using a cell number measurement WST-8 kit (Kishida Chemical Co., Ltd.). As a control, the measurement was performed under conditions free of the test compound. The cytotoxic activity of the compound of the present invention against human prostate cancer LNCaP cells is shown in IC50 value in Table 1. The IC50 value is a concentration of the compound showing 50% cell survival rate when the cell survival rate thereof under compound untreated condition is 100%. It was calculated from the straight line connecting the cell survival rate at two points enclosing the 50% cell survival rate and the compound concentration. […]

[3] = test system: human triple negative breast cancer MDA-MB-231 cell; test: Cytotoxic action on MDA-MB-231 cells (WST-8, 96 hr); type: cell-based; conditions: MDA-MB-231, 96 hr
Method: as §1

[4] = test system: human liver cancer HLF cell; test: Cytotoxic action on HLF cells (WST-8, 96 hr); type: cell-based
Method: as §1

BRD4 protein = BRD4 protein (Homo sapiens (Human), UniProt O60885); test: Inhibitory action on binding of BRD4 protein and acetylated histone H4 (TR-FRET); conditions: BRD4-1 (GST) and acetylated histone H4 peptide, 3 hr
Method: The inhibitory action of the compound of the present invention on the binding of BRD4 protein and a ligand thereof (acetylated histone H4) was evaluated by the time-resolved fluorescence resonance energy transfer (TR-FRET) method using EPIgeneous™ Binding Domain Kit A (Cisbio), BRD4-1 (GST) (Reaction Biology Corp) and [Lys(Ac)5/8/12/16]-Histone H4(1-21)-GGK (Biotin) (Eurogentec). In this experiment, (+)-JQ1 (Nature volume 468, pages 1067-1073 (23 Dec. 2010)) known to have an inhibitory activity on the binding of BRD4 protein and acetylated histone H4 therefor was used as a positive control drug. A test compound dissolved in DMSO was diluted with attached Diluent Buffer, added to a 384 well white plate, and BRD4-1 (GST) and [Lys(Ac)5/8/12/16]-Histone H4(1-21)-GGK (Biotin) were further added. Thereafter, Streptavidin-d2 conjugate and Anti-GST-Eu^3+ Cryptate Conjugate were added and the cells were incubated at room temperature for 3 hr. The binding amount of the BRD4 protein and acetylated histone H4 was measured as the fluorescence intensity (excitation: 314 nm/emission: 620 nm and excitation: 314 nm/emission: 665 nm). […] It was calculated from the straight line connecting the degradation rate at two points enclosing the 50% fluorescence intensity and the compound concentration.

[5] = test system: human pancreatic cancer BxPC-3 cell; test: Cytotoxic action on BxPC-3 cells (WST-8, 96 hr); type: cell-based; conditions: BxPC-3, 96 hr
Method: as §1

[6] = test system: human diffuse large B-cell lymphoma SU-DHL-6 cell; test: Cytotoxic action on SU-DHL-6 cells (WST-8, 96 hr); type: cell-based; conditions: SU-DHL-6, 96 hr
Method: as §1

[7] = test system: human breast cancer ZR-75-1 cell; test: Cytotoxic action on ZR-75-1 cells (WST-8, 96 hr); type: cell-based; conditions: ZR-75-1, 96 hr
Method: as §1

[8] = test system: human glioma U-87 MG cell; test: Cytotoxic action on U-87 MG cells (WST-8, 96 hr); type: cell-based
Method: as §1

[9] = test system: human renal cell cancer 786-O cell; test: Cytotoxic action on 786-O cells (WST-8, 96 hr); type: cell-based; conditions: 786-O (printed 786-0)
Method: as §1

[10] = test system: human chronic myeloid leukemia K562 cell; test: Cytotoxic action on K562 cells (WST-8, 96 hr); type: cell-based; conditions: K562, 96 hr
Method: as §1

Q: Which IC50 [1] does the source give for `COC(=O)C[C@@H]1N=C(c2ccc(-c3ccc(C(=O)NCc4ccc(S(=O)(=O)Nc5ccc(C)c6c(C#N)c[nH]c56)cc4)cc3)cc2)c2c(sc(C)c2C)-n2c(C)nnc21` [Example 1, methyl [(6S)-4-{4′-[({4-[(3-cyano-4-methyl-1H-indol-7-yl)sulfamoyl]phenyl}methyl)carbamoyl][1,1′-biphenyl]-4-yl}-2,3,9-trimethyl-6H-thieno[3,2-f][1,2,4]triazolo[4,3-a][1,4]diazepin-6-yl]acetate] here?
A: 0.39 nM

Q: And the IC50 [2]?
A: 1.8 nM

Q: What about the IC50 [3] of the same compound?
A: 4 nM

Q: What about the IC50 [4] of the same compound?
A: 2.9 nM

Q: And the IC50 (BRD4 protein)?
A: 29 nM

Q: And the IC50 [5]?
A: 3.3 nM

Q: And the IC50 [6]?
A: 0.44 nM

Q: And the IC50 [7]?
A: 27 nM

Q: What about the IC50 [8] of the same compound?
A: 6 nM

Q: And the IC50 [9]?
A: 660 nM

Q: And the IC50 [10]?
A: 1.7 nM
